Data on 27 compounds can be found in patent publication US5691307A, “O^6 -substituted guanine compositions and methods for depleting O^6” (The United States of America as represented by the …, priority 1994, dated 1997).

Series [1] has as its system AGT. In words: AGT depletion (general statements).
For series [2] the following is noted: background; agents under development; cited from earlier work.
In a further series the test system is prostate tumors. Particulars: rats bearing prostate tumors; O^6-benzylguanine one hour prior to BCNU, or BCNU alone at equal dose; cited from earlier work.
In series [3] the target is T1, alkyltransferase (AGT), HT29 cells (Homo sapiens, UniProt P16455).
T1 construct: human colon tumor cells HT29 and intact HT29 cells; endogenous in cells; host or cells: HT29 human colon tumor cells, intact
T1 sequence (P16455 1-207): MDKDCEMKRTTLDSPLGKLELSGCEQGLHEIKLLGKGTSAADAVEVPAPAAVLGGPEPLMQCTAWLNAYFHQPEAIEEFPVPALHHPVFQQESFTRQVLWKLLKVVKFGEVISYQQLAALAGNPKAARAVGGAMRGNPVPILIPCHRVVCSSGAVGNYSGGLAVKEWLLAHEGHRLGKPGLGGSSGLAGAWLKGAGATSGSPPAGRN
Put plainly: AGT depletion/inactivation in intact HT29 cells. The series is classed as cell-based. As for the experimental part:
After four hours, cells were harvested and frozen at -80° C. until analysis for AGT.

The target in series [4] is T2, alkyltransferase (AGT), HT29 cell-free extract (Homo sapiens, UniProt P16455).
T2 sequence (P16455 1-207): T1 sequence (P16455 1-207)
In words: biochemical.

A short description of series [5]: Conversion to O^6-benzylguanine / stability in vitro and in cell cultures. The series is classed as in vitro ADME.
Series [6] can be described thus: Stability in alkaline solution (UV at pH 13). The series is classed as physicochemical. Particulars: pH 13, UV measurement. As for the experimental part: The reaction mixture was stirred at 0° C. for 30 min at which time the ice bath was removed and the reaction was allowed to proceed overnight at room temperature. At this point, a water-ice mixture (~5 ml) was added to the flask with vigorous stirring for 5 minutes.

Another series deals with tumor cells. The note with it: cited from earlier work.
Series [7] deals with AGT. The note with it: cited from earlier work; for AGT depletion (shown previously): literature.
The test system of another series is pancreatic tumors. Particulars: background; cited from earlier work.
The next series has as its system pancreatic beta cells. Particulars: cited from earlier work.
Series [8] deals with malignant melanomas, brain tumors and mycosis fungoides. The note with it: background; cited from earlier work.
Series [9] deals with active melanin producing cells such as melanoma cells. Particulars: cited from earlier work.
The mark [10] stands for this setting: HT29 cells, 4 h incubation, 50% inactivation (Table 2), read-out: ED50 In cells.
The mark [11] stands for this setting: HT29 cell-free extract, 30 min incubation, 50% inactivation (Table 2), read-out: ED50 In cell-free extract.

The structures appear in SMILES notation. Read-outs that look alike come from different tables or passages of the source.

For `Nc1nc(OCc2ccccc2)c2ncn(CC(=O)[O-])c2n1.[Na+]`, in the series with AGT [1], the AGT depletion characteristics result is “exhibit AGT depletion characteristics”.
On to `O=NN(CCCl)C(=O)NCCO` [1-(2-chloroethyl)-3-(2-hydroxyethyl)-1-nitrosourea], for which the side effects result in [2] was “fewer side effects”.
Consider `O=NN(CCCl)C(=O)NCCCl` [BCNU, 1,3-bis(2-chloroethyl)-1-nitrosourea], for which, in the series on prostate tumors, the “regression in tumor growth” value is given as “not observed”.
`CS(=O)(=O)CS(=O)(=O)OCCCl` [Clomesone, 2-chloroethylmethylsulfonylmethanesulfonate]: the side effects entry in [2] was “fewer side effects”.
For `CCOC(=O)Cn1cnc2c(OCc3ccccc3)nc(N)nc21` [Example 3b, 2-Amino-6-benzyloxy-9-carboethoxymethylpurine], the IC50 worked out at 3 µM in series [3] (setting [10]) and 30 µM in series [4] (setting [11]). Moreover, the AGT depletion characteristics result in the series with AGT [1] is recorded as “exhibit AGT depletion characteristics”.
On to `NC(=O)Cn1cnc2c(OCc3ccccc3)nc(N)nc21` [Example 4b, 2-Amino-6-benzyloxy-9-carbamoylmethylpurine], for which the AGT depletion characteristics result in the series on AGT [1] was “exhibit AGT depletion characteristics”.
With `CCC(O)Cn1cnc2c(OCc3ccccc3)nc(N)nc21` (stereo not shown) [Example 5b, 2-Amino-6-benzyloxy-9-(2-hydroxybutyl)purine], in the series on AGT [1], the AGT depletion characteristics result was “exhibit AGT depletion characteristics”.
On the same count and under the same terms, next, `N#CCn1cnc2c(OCc3ccccc3)nc(N)nc21` [Example 6b, 2-Amino-6-benzyloxy-9-cyanomethylpurine]: “exhibit AGT depletion characteristics”.
In the case of `CC(C)(C)C(=O)OCn1cnc2c(OCc3ccccc3)nc(N)nc21` [Example 7, 2-Amino-6-benzyloxy-9-pivaloyloxymethylpurine], the “conversion by esterases in cell cultures” value in series [5] (cell cultures) is “Converted to O^6benzylguanine by esterases in cell cultures”. Besides, the stability in vitro result in series [5] (in vitro) was “stable in vitro”.
Turning to `CC(=O)OC[C@H]1OC(OC(C)=O)[C@H](NC(=O)Cn2cnc3c(OCc4ccccc4)nc(N)nc32)[C@@H](OC(C)=O)[C@@H]1OC(C)=O` (stereo partly drawn) [Example 8, 2-Amino-6-benzyloxy-9-{N-[2-deoxy-2-(1,3,4,6-tetra-O-acetyl)-D-glucopyranosyl]carbamoylmethyl}purine], the AGT depletion characteristics result in the series on AGT [1] is listed as “exhibit AGT depletion characteristics”.
On to `CC(=O)n1cnc2c(OCc3ccccc3)nc(N)nc21` [Example 13, 9-Acetyl-O^6-benzylguanine], for which the “decomposition at pH 13” value in series [6] was “decomposes to O^6 -benzylguanine”. The conversion by hydrolysis result in series [5] (in vitro and in cultures) is recorded as “Converted to O^6benzylguanine by hydrolysis”.
As to `C[C@]12CC[C@H]3[C@@H](CCC4=CC(=O)CC[C@@]43C)[C@@H]1CC[C@@H]2OC(=O)Cn1cnc2c(OCc3ccccc3)nc(N)nc21` [Example 20, O^6 -Benzyl-9-(4-androsten-3-one-17β-oxycarbonylmethyl) guanine], the values for the IC50 in [3] and in [4] were 0.5 µM and 5 µM, respectively.
For the compound `C[C@]12CCC(=O)C[C@@H]1CC[C@@H]1[C@@H]2CC[C@]2(C)[C@@H](OC(=O)Cn3cnc4c(OCc5ccccc5)nc(N)nc43)CC[C@@H]12` [Example 22, O^6 -Benzyl-9-(5α-androstan-3-one-17β-oxycarbonylmethyl) guanine], the IC50 in series [3] amounted to 0.5 µM; in series [4], 4 µM.
Consider `CCOP(=O)(OCC)C(C)NC(=O)N(CCCl)N=O` (stereo not shown) [Fotemustine, 1-[N-(2-chloroethyl)-N-nitrosoureido]ethylphosphonic acid diethyl ester], for which the side effects entry in series [2] is “fewer side effects”.
Turning to `Nc1nc(OCc2ccc(Cl)cc2)c2nc[nH]c2n1` [O^6 -(p-chlorobenzyl)guanine, O^6 -(p-chlorobenzyl) guanine], the “enhancement in the cytotoxic response to alkylating agents” value (from here on “enhancement in the cytotoxic response”) in the series on tumor cells is listed as “enhancement in the cytotoxic response to chemotherapeutic alkylating agents”. In series [3] (setting [10]), the IC50 amounted to 0.08 µM. In the series on AGT [7], the “potency as AGT depleter” value was “more potent” and the “AGT depletion (shown previously)” value was “effective in depleting AGT”. Further, the IC50 in series [4] (setting [11]) was 0.2 µM.
Regarding `Nc1nc(OCc2ccc(Cl)cc2)c2ncn([C@@H]3O[C@H](CO)[C@@H](O)[C@H]3O)c2n1` [O^6 -(p-chlorobenzyl)guanosine], the IC50 in series [3] (setting [10]) worked out at 5 µM; in series [4] (setting [11]) it was 10 µM. For the same compound, the “AGT depletion (shown previously)” value in the series on AGT [7] was “effective in depleting AGT”.
Consider `Nc1nc(OCc2ccc(F)cc2)c2nc[nH]c2n1` [O^6 -(p-fluorobenzyl)guanine, O^6 -(p-fluorobenzyl) guanine], for which the “AGT depletion (shown previously)” value in the series on AGT [7] is reported as “effective in depleting AGT”. In addition, in series [4] (setting [11]), the IC50 came to 0.2 µM.
For the compound `Cc1ccc(COc2nc(N)nc3nc[nH]c23)cc1` [O^6 -(p-methylbenzyl)guanine], in the series with tumor cells, the “enhancement in the cytotoxic response” value is “enhancement in the cytotoxic response to chemotherapeutic alkylating agents”. Further, the IC50 in series [3] (setting [10]) worked out at 0.08 µM; in [4] (setting [11]), 0.2 µM. Further, the “potency as AGT depleter” value in the series on AGT [7] is given as “more potent”. In the series with AGT [7], the “AGT depletion (shown previously)” value is reported as “effective in depleting AGT”.
`Cc1ccc(COc2nc(N)nc3c2ncn3[C@@H]2O[C@H](CO)[C@@H](O)[C@H]2O)cc1` [O^6 -(p-methylbenzyl)guanosine, O^6 - (p-methylbenzyl)guanosine]: the IC50 was determined as 3 µM in [3] (setting [10]) and 9 µM in series [4] (setting [11]). Also, in the series on AGT [7], the “AGT depletion (shown previously)” value is recorded as “effective in depleting AGT”.
Turning to `C=CCOc1nc(N)nc2nc[nH]c12` [O^6 -allylguanine, O^6 -Allylguanine], the IC50 amounted to 4 µM in [3] and 20 µM in [4].
As for `Nc1nc(OCc2ccccc2)c2ncn([C@@H]3O[C@H](CO)[C@@H](O)[C@H]3O)c2n1` [O^6 -benzylguanosine], the IC50 came out at 2 µM in series [3] (setting [10]) and 11 µM in series [4] (setting [11]). Moreover, the “AGT depletion (shown previously)” value with AGT [7] was “effective in depleting AGT”.
With `COc1nc(N)nc2nc[nH]c12` [O^6 -methylguanine], the “enhancement in the cytotoxic response” value in the series with tumor cells was “enhancement in the cytotoxic response to chemotherapeutic alkylating agents”. Moreover, the IC50 in series [3] (setting [10]) was determined as 120 µM; in series [4] (setting [11]) it was 350 µM. Besides, in the series on AGT [7], the “potency as AGT depleter” value is recorded as “weak”.
For the compound `Nc1nc(OCc2ccccc2)c2ncn([C@H]3C[C@H](O)[C@@H](CO)O3)c2n1` [O^6-benzyl-2'-deoxyguanosine], the IC50 came out at 0.5 µM in series [3] (setting [10]) and 2 µM in series [4] (setting [11]). For the same compound, in the series on AGT [7], the “AGT depletion (shown previously)” value is listed as “effective in depleting AGT”.
Turning to `CN(N=O)C(=O)N[C@H]1C(O)O[C@H](CO)[C@@H](O)[C@@H]1O` (stereo partly drawn) [Streptozotocin, 2-deoxy-2-(3-methyl-3-nitrosoureido)-D-glucopyranose], in the series with pancreatic tumors, the “effectiveness against pancreatic tumors” value is “effective”. In the series on pancreatic beta cells, the “selective destruction of pancreatic beta cells” value was “selectively destructive to pancreatic beta cells”.
In the case of `Cn1nnc2c(C(N)=O)ncn2c1=O` [Temozolomide, 8-carbamoyl-3-methylimidazo[5,1-d]-1,2,3,5-tetrazin-4-(3H)-one], in [8], the “activity against malignant melanomas, brain tumors and mycosis fungoides” value was “active”.
With `O=c1cc[nH]c(=S)[nH]1` [Thiouracil], in series [9], the “accumulation in active melanin producing cells” value is “accumulates readily in active melanin producing cells such as melanoma cells”.
For `Nc1nc(OCc2ccccc2)c2ncn(CC(=O)[O-])c2n1.[Na+]` [sodium salt], the IC50 in series [4] (setting [11]) stood at 157 µM.
